Data from patent publication US20230372525A1, “TRANSGLUTAMINASE CONJUGATION METHOD WITH AMINO ACID-BASED LINKERS” (ARARIS BIOTECH AG, priority 2020, published 2023).
[ ]: non-standard residue; d: D form. The star is where a group is joined. N3 = [N-]=[N+]=N*; βAla = NCCC(=O)O

Tests used:
[1] = test system: native, glycosylated antibody trastuzumab (anti Her2 IgG); assay: MTG-mediated conjugation of peptide linkers to native glycosylated trastuzumab, conjugation efficiency by LC-MS under reducing conditions; assay type: biochemical; conditions: for Conjugation efficiency (%) antibody with conditions 2: conditions 2: trastuzumab 1 mg/mL, MTG 6 U/mg, 80 molar equivalents linker, 20 hours at 37° C.; for Conjugation efficiency (%) Trastuzumab with conditions 3: conditions 3: 5 mg/mL antibody, 5 molar equivalents linker; for Conjugation efficiency (%) Trastuzumab with conditions 3 / Conjugation efficiency (%) to antibody: MTG 3 U/mg, 24 hours at 37° C.; for Conjugation efficiency (%) to antibody: trastuzumab 5 mg/mL, 20 molar equivalents linker, 50 mM Tris pH 7.6
Procedure: (§1) Linkers are used as obtained and dissolved at a suitable stock concentration (e.g. 25 mM) following the manufacturers instruction, aliquots are prepared and stored at −20° C. Two antibodies of IgG-subclass (antibody 1: anti Her2 IgG1, antibody 2: anti CD38 IgG1) are modified as follows: 5 mg/mL of non-deglycosylated antibody (˜33.33 μM) is mixed with 20 molar equivalents of amino acid-based linker (i.e. ˜667 μM), 3 U/mg of antibody and a suitable buffer. The reaction mixture is incubated for 20 h at 37° C. and then subjected for LC-MS analysis under reducing conditions. Other reaction conditions have been used as indicated in the corresponding example.
(§2) For conjugation of the peptide linkers (see FIG. 2 for structures), 5 mg/mL of native, glycosylated monoclonal antibody in 50 mM Tris pH 7.6, microbial transglutaminase (MTG, Zedira) at a concentration of 3 U/mg in 50 mM Tris pH 7.6 or water, and 20 molar equivalents of the indicated peptide linker were used and incubated for 24 hours at 37° C. in a rotating thermomixer. Conjugation efficiency was assessed by LC-MS under DTT reduced conditions. Reduction of samples was achieved by incubation of antibody-linker-conjugates (ALCs) for 15 min at 37° C. in 50 mM DTT (final) and 50 mM Tris buffer. Probes were analyzed on a Xevo G2-XS QTOF (Waters) coupled to an Acquity UPLC H-Class System (Waters) and an ACQUITY UPLC BEH C18 Column. Conjugation efficiency (CE) was calculated from deconvoluted spectra and presented in %. Intensities resulting from both glycoforms (G1F and G0F) were taken into account for the calculation, according to the formula: […]
For conjugation of the peptide linkers (see FIG. 2 for structures), 1 mg/mL of native, glycosylated monoclonal antibody in 50 mM Tris pH 7.6, microbial transglutaminase (MTG, Zedira) at a concentration of 6 U/mg in 50 mM Tris pH 7.6 or water, and 80 molar equivalents of the indicated peptide linker were used and incubated for 20 hours at 37° C. in a rotating thermomixer. These are defined as “conditions 2”. Conjugation efficiency was assessed by LC-MS under DTT reduced conditions. Reduction of samples was achieved by incubation of antibody-linker-conjugates (ALCs) for 15 min at 37° C. in 50 mM DTT (final) and 50 mM Tris buffer. Probes were analyzed on a Xevo G2-XS QTOF (Waters) coupled to an Acquity UPLC H-Class System (Waters) and a ACQUITY UPLC BEH C18 Column. Conjugation efficiency (CE) was calculated from deconvoluted spectra and presented in %. Intensities resulting from both glycoforms (G1F and G0F) were taken into account for the calculation, according to the formula: […]
(§3) For conjugation of the peptide linkers (see FIG. 2 for structures), 5 mg/mL of native, glycosylated monoclonal antibody in 50 mM Tris pH 7.6, microbial transglutaminase (MTG, Zedira) at a concentration of 3 U/mg in 50 mM Tris pH 7.6 or water, and 5 molar equivalents of the indicated peptide linker were used and incubated for 24 hours at 37° C. in a rotating thermomixer. These are defined as “conditions 3”. Conjugation efficiency was assessed by LC-MS under DTT reduced conditions. Reduction of samples was achieved by incubation of antibody-linker-conjugates (ALCs) for 15 min at 37° C. in 50 mM DTT (final) and 50 mM Tris buffer. Probes were analyzed on a Xevo G2-XS QTOF (Waters) coupled to an Acquity UPLC H-Class System (Waters) and a ACQUITY UPLC BEH C18 Column. Conjugation efficiency (CE) was calculated from deconvoluted spectra and presented in %. Intensities resulting from both glycoforms (G1F and G0F) were taken into account for the calculation, according to the formula: […]

[2] = test system: native, glycosylated antibody daratumumab (anti CD38 IgG); assay: MTG-mediated conjugation of peptide linkers to native glycosylated daratumumab, conjugation efficiency by LC-MS under reducing conditions; assay type: biochemical; conditions: MTG 3 U/mg, 24 hours at 37° C.; for Conjugation efficiency (%) Daratumumab with conditions 3: conditions 3: 5 mg/mL antibody, 5 molar equivalents linker; for Conjugation efficiency (%) to antibody: daratumumab 5 mg/mL, 20 molar equivalents linker, 50 mM Tris pH 7.6
Procedure: as §1, §2, §3

[3] = biological target: DNA-dependent RNA polymerase II (Homo sapiens, UniProt P24928); conditions: read-out: KD of the complex between amanitin and RNA-polymerase II; cited from earlier work
[4] = test system: various tumor cell lines; conditions: cited from earlier work

| Molecule | Conjugation efficiency (%) antibody with conditions 2 [1] [%] | Conjugation efficiency (%) Trastuzumab with conditions 3 [1] [%] | Conjugation efficiency (%) to antibody [1] [%] | Conjugation efficiency (%) Daratumumab with conditions 3 [2] [%] | Conjugation efficiency (%) to antibody [2] [%] | Kd [3] [nM] | IC50, cytostatic effects on various tumor cell lines [4] |
| --- | --- | --- | --- | --- | --- | --- | --- |
| NH2-C5-GRK(N3)-NH2 [NT36] | 56 | 75 | 84 | 72 | 93 |  |  |
| NH2-C5-ValArg-NH2 [NT44] | 88 | 77 | 100 | 73 | 95 |  |  |
| NH2-C4-ValArg-NH2 [NT40] | 83 | 58 | 96 | 51 | 89 |  |  |
| NH2-C1-GRK(N3)-NH2 (GGRK; HELM PEPTIDE1{G.G.R.[[N-]=[N+]=NCCCC[C@H](N[*:1])C(=O)[*:2]].[am]}$$$$V2.0; SMILES [N-]=[N+]=NCCCC[C@H](NC(=O)[C@H](CCCNC(=N)N)NC(=O)CNC(=O)CN)C(N)=O) [NT24] | 78 | 97 | 99 | 89 | 95 |  |  |
| NH2-C3-GRK(N3)-NH2 [NT38] | 36 |  | 53 |  |  |  |  |
| LGRC-NH2 [reference compound] |  |  | 0 |  |  |  |  |
| SAGRK(N3)-NH2 [reference compound] |  |  | 0 |  |  |  |  |
| amanitin |  |  |  |  |  | 3 |  |
| CC[C@H](C)[C@H](NC(=O)[C@H]1CCCCN1C)C(=O)N(COC(=O)CC(C)C)[C@H](C[C@@H](OC(C)=O)c1nc(C(=O)N[C@@H](Cc2ccc(O)cc2)C[C@H](C)C(=O)O)cs1)C(C)C [Tubulysin A] |  |  |  |  |  |  | picomolar range |
| NH2-C6-ThrArg-NH2 [NT64] |  | 92 | 95 | 92 | 93 |  |  |
| NH2-C6-TrpArg-NH2 [NT67] |  |  | 82 |  | 83 |  |  |
| NH2-C4-GRK(N3)-NH2 [NT41] | 70 | 88 | 99 | 88 | 98 |  |  |
| NH2-C1-ARK(N3)-NH2 (GARK; HELM PEPTIDE1{G.A.R.[[N-]=[N+]=NCCCC[C@H](N[*:1])C(=O)[*:2]].[am]}$$$$V2.0; SMILES C[C@H](NC(=O)CN)C(=O)N[C@@H](CCCNC(=N)N)C(=O)N[C@@H](CCCCN=[N+]=[N-])C(N)=O) [NT28] |  |  | 89 |  |  |  |  |
| NH2-C4-ValCit-NH2 [NT39] | 63 |  | 67 |  |  |  |  |
| NH2-C2-GRK(N3)-NH2 (H-[βAla]GRK(N3)-NH2) [NT37] | 38 |  | 70 |  |  |  |  |
| RGRK(N3)-NH2 [reference compound] |  |  | 0 |  |  |  |  |
| VGRC-NH2 [reference compound] |  |  | 0 |  |  |  |  |
| AARK(N3)-NH2 [reference compound] |  |  | 0 |  |  |  |  |
| NH2-C6-IleArg-NH2 [NT65] |  | 78 | 96 | 79 | 95 |  |  |
| NH2-C5-ValCit-NH2 [NT43] | 79 |  | 83 |  |  |  |  |
| NH2-C6-AspArg-NH2 [NT66] |  |  | 64 |  | 66 |  |  |
| NH2-C6-GRK(N3)-NH2 [NT42] | 38 |  | 67 |  |  |  |  |
